# According to patent publication US20240060131A1, “METHOD FOR IDENTIFYING AND/OR REGULATING SENESCENCE” (INSTITUTE OF ZOOLOGY, CHINESE ACADEMY OF SCIENCES, priority 2020, published 2024):
# “Also recorded” adds a separate entry of the source.
# Key:
# Assay type in all cases: cell-based, human
# [1] = tested on: HERVK-LTR5HS; test: ChIP-qPCR of 5 mC occupation in HERVK-LTR5HS in treated hMPCs; settings: hMPCs of early passage; vs cells not treated
# Description: (§1) For 5-azacytidine (5-AZA) treatment, hMPCs were seeded (generation 0 (P0) after treatment), and treated by […] 5-AZA for 4 days, followed by passage and culture in fresh medium. At P2 after treatment (6 days after 5-AZA treatment), cells was used for Ki67 immunofluorescence, SA-O-gal staining and RNA/DNA extraction.
# Cells were fixed in 1% formaldehyde dissolved in PBS at room temperature for 10 min, and then, quenched by 125 mM glycine. Cells were lysed on ice for 10 min, and subjected to ultrasonic treatment with Covaris S220. Collected supernatant was incubated with Dynabeads Protein A (Life Technologies, 10001D) pre-mixed with 2.3 μg specified antibody at 4° C. overnight. After washing, samples were digested by Protease K (New England Biolabs), eluted and cross-link-reversed on thermal mixer at 68° C. for 2 h. DNA was extracted with phenol-chloroform-isoamylol, and eluted DNA was analyzed by qPCR.
# 5-AZA (a DNA methyltransferase inhibitor (DNMTi)) was used to treat hMPCs of early passage. ChIP-qPCR and RT-qPCR analyses were performed on treated cells, cells not treated by 5-AZA were used as control.
# [2] = tested on: cGAS-STING pathway; test: cGAS-STING innate immune pathway and SASP in hMPCs (Western blot, RT-qPCR); settings: hMPCs with activated endogenous HERVK
# Description: (§2) Cells were lysed in 1×SDS buffer (100 mM Tris-HCl, pH 6.8, 10% glycerol, 2% SDS and 2%2-mercaptoethanol), boiled for 10 min at 105° C. Protein concentration was measured by BCA kit. Cell lysate was subjected to SDS-PAGE electrophoresis, then transferred to PVDF membrane (Millipore). The membrane was incubated with primary antibody, incubated with secondary antibody conjugated to HRP after washing, then blotted with substrate, the substrate was the mixture of 1000 μL substrate A and 3 μL substrate B (substrate A: 0.2 mM cumaric acid, 1.25 mM luminal, 0.1 M Tris-HCl, pH 8.5; substrate B: 3% H2O2) or Super Signal West Femto Maximum Sensitivity Substrate (Thermo Fisher Scientific). Images were taken by Image Lab software. Quantification was conducted by ImageJ.
# (§3) In accordance with the manufacturer's instructions, total RNA of cell was extracted by TRIzol (Thermo Fisher Scientific); reverse transcribed into cDNA with GoScript reverse transcription system (Promega) for RT-qPCR; RT-qPCR was conducted with THUNDERBIRD qPCR Mix (TOYOBO) and CFX384 real-time system (Bio-Rad Laboratories, Inc.).
# To further study the activation of cGAS-STING DNA sensing pathway, the following key characteristics in different senescent hMPCs (including RS, HGPS and WS) and fibroblasts were detected: […] TANK binding kinase 1 (TBK1) and IFN regulating factor 3 (IRF3) as well as proinflammatory cytokines (e.g., IL1B andIL6), these factors were regarded as SASP factors.
# [3] = tested on: HERVK; test: RT-qPCR and Western blot of HERVK and senescence markers in hMPCs after HERVK activation or 5-AZA treatment; settings: RT-qPCR
# Description: as §2, §3
# To activate endogenous HERVK, non-targeted control or lentivirus construct with HERVK LTR targeted sgRNA was cloned to lenti-SAM v2 (addgene #75112) through ESP3I site, and co-transfected with lenti-MPH v2 (addgene #89308). […]
# HERVK-activated cell was analyzed by RT-qPCR and Western blot. […]
# [4] = tested on: hMPCs; test: Analysis of classical aging characteristics (SA-β-gal, Ki67, clonal expansion) in hMPCs; settings: hMPCs after HERVK activation or 5-AZA treatment
# Description: Cells seeded on coverslip (Thermo Fisher Scientific) were washed by PBS, fixed in 4% paraformaldehyde (PFA), permeabilized in 0.4% Triton X-100, blocked by 10% donkey serum. The coverslip was incubated with primary antibody at 4° C. in blocking buffer, then incubated with secondary antibody at room temperature for 1 h. Nucleus was labelled by Hoechst 33342 (Invitrogen).
# as §1
# For lentivirus transduction, hMPCs were seeded (P0 after treatment) and incubated with lentivirus in the presence of polybrene (Sigma-Aldrich) for 24 h. After two passages, treated cells were used for Ki67 immunofluorescence, SA-β-gal staining and RNA/DNA extraction.
# 5 thousand cells were seeded in one well of 6-well plate (Corning) cover with gelatin (Sigma), and cultured for about 10 days. Cells were fixed by 4% PFA, stained by 10% crystal violet for 30 min. Relative cell integral density was calculated by ImageJ software.
# Cells were fixed by a buffer containing 2% (w/v) formaldehyde and 0.2% (w/v) glutaraldehyde for 5 min, and treated by staining buffer containing 1 mg/mL X-gal at 37° C. overnight.
# In particular, relative percentage of cells positive for senescence associated β-galactosidase (SA-β-gal) was increased, the number of Ki67 positive cells was decreased and the clonal expansion ability was reduced (as shown by FIGS. 12C-12E).
structure (smiles),measurement,setting,value
"Nc1ncn([C@@H]2O[C@H](CO)[C@@H](O)[C@H]2O)c(=O)n1 [5-AZA, 5-azacytidine]",5 mC occupation in HERVK-LTR5HS,[1],reduce; also recorded: decrease
same,expression of SASP cytokine,[2],up-regulated
same,level of phosphorylated IRF3,[2],increased
same,level of phosphorylated RelA,[2],increased
same,level of phosphorylated TBK1,[2],increased
same,senescence marker p16INK4a level,[3],increased
same,HERVK RNA level,[3]; vs untreated or non-targeting sgRNA control,increase
same,SA-β-gal positive cells,[4],increased
same,cell senescence (overall),[4],caused premature senescence; also recorded: induces senescence
same,clonal expansion ability,[4],reduced
same,number of Ki67 positive cells,[4],decreased
